# From ChEMBL document CHEMBL3991601, “The target landscape of clinical kinase drugs” (Science, 2017)
# The source made the active and inactive calls. For most assays here, no stated cut-off is given here; in the data, actives have a measured Kd and inactives only a lower limit.
# Tests used:
# [1] = biological target: 26S proteasome regulatory subunit 6B (Homo sapiens, UniProt P43686)
# [2] = biological target: S-adenosylmethionine synthase isoform type-2 (Homo sapiens, UniProt P31153)
# [3] = biological target: T1, Serine/threonine-protein kinase TAO2 (Homo sapiens, UniProt Q9UL54)
# T1 sequence (Q9UL54 whole entry): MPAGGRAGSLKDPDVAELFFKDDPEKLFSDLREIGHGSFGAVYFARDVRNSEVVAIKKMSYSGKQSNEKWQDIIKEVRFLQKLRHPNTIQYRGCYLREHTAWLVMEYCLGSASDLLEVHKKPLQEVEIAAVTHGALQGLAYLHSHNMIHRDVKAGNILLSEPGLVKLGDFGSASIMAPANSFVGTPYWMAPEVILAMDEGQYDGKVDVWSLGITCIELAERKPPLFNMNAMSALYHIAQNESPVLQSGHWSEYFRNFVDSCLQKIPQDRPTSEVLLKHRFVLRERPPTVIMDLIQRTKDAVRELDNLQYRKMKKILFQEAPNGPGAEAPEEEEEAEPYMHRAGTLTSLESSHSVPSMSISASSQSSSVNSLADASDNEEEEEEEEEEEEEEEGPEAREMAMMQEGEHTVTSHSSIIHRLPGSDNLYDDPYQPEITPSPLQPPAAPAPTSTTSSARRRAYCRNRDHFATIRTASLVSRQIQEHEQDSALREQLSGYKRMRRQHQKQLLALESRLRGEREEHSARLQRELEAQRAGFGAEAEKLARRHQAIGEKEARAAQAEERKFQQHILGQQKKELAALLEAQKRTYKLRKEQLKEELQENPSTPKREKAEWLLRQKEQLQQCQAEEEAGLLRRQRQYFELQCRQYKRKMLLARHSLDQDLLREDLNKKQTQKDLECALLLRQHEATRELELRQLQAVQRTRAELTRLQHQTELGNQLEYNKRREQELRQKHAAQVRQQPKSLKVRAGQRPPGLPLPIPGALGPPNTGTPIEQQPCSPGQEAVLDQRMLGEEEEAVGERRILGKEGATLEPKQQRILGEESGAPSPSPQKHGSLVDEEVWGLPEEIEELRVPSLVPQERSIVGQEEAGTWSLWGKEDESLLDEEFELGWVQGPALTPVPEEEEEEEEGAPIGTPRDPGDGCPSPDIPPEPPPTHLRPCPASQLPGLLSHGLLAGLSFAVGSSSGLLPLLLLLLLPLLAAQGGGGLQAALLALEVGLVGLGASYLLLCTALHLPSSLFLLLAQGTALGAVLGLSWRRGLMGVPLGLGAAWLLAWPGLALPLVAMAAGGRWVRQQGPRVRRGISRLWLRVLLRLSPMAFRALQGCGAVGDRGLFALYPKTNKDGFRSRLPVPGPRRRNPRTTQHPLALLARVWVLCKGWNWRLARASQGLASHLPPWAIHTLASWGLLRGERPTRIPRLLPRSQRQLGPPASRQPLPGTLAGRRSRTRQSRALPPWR
# [4] = biological target: T2, Membrane-associated tyrosine- and threonine-specific cdc2-inhibitory kinase (Homo sapiens, UniProt Q99640)
# T2 sequence (Q99640 whole entry): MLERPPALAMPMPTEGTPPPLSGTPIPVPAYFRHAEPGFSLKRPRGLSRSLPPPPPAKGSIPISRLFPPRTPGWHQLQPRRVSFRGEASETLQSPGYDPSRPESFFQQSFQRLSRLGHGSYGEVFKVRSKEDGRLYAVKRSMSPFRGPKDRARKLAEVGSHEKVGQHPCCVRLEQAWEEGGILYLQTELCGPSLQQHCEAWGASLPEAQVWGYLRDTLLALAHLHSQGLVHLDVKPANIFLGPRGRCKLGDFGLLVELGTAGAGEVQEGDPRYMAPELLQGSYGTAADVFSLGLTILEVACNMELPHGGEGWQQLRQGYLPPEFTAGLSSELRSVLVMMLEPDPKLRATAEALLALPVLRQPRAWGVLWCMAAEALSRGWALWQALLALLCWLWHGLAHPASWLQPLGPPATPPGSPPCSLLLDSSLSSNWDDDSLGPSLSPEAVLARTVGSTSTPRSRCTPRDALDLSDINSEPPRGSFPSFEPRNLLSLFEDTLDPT
# Actin-related protein 2 = Actin-related protein 2 (Homo sapiens, UniProt P61160)
# [5] = biological target: Tyrosine-protein kinase Fer (Homo sapiens, UniProt P16591)
# [6] = biological target: Glycogen synthase kinase-3 beta (Homo sapiens, UniProt P49841)
# [7] = biological target: Tyrosine-protein kinase ABL2 (Homo sapiens, UniProt P42684)
# [8] = biological target: Receptor-interacting serine/threonine-protein kinase 3 (Homo sapiens, UniProt Q9Y572)
# [9] = biological target: T3, STE20-related kinase adapter protein alpha (Homo sapiens, UniProt Q7RTN6)
# T3 sequence (Q7RTN6 whole entry): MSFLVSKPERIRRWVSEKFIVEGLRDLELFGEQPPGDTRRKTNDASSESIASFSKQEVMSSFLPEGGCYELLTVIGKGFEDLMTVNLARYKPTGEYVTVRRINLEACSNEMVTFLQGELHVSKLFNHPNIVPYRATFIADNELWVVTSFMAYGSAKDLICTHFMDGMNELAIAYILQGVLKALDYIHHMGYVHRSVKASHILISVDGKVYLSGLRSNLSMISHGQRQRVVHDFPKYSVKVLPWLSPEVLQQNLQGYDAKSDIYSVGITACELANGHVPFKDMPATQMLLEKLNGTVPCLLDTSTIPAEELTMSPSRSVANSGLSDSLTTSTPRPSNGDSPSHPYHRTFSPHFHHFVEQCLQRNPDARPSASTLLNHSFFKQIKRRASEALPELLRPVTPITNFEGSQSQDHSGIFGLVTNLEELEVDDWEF
# [10] = biological target: MAP/microtubule affinity-regulating kinase 3 (Homo sapiens, UniProt P27448)
# [11] = biological target: Mitogen-activated protein kinase kinase kinase 20 (Homo sapiens, UniProt Q9NYL2)
# [12] = biological target: Fibroblast growth factor receptor 1 (Homo sapiens, UniProt P11362)
# [13] = biological target: Cyclin-dependent kinase 7 (Homo sapiens, UniProt P50613)
# Sequence of Cyclin-dependent kinase 7 (P50613 whole entry): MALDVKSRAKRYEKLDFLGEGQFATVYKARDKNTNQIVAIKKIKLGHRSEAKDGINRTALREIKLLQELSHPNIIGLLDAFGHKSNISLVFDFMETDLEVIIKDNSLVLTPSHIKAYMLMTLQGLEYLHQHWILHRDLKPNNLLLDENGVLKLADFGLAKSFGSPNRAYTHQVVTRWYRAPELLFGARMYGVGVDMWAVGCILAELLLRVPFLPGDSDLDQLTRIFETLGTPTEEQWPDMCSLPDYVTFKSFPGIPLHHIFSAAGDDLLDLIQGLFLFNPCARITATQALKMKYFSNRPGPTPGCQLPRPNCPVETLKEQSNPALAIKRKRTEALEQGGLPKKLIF
# Sequence of Tyrosine-protein kinase ABL2 (P42684 whole entry): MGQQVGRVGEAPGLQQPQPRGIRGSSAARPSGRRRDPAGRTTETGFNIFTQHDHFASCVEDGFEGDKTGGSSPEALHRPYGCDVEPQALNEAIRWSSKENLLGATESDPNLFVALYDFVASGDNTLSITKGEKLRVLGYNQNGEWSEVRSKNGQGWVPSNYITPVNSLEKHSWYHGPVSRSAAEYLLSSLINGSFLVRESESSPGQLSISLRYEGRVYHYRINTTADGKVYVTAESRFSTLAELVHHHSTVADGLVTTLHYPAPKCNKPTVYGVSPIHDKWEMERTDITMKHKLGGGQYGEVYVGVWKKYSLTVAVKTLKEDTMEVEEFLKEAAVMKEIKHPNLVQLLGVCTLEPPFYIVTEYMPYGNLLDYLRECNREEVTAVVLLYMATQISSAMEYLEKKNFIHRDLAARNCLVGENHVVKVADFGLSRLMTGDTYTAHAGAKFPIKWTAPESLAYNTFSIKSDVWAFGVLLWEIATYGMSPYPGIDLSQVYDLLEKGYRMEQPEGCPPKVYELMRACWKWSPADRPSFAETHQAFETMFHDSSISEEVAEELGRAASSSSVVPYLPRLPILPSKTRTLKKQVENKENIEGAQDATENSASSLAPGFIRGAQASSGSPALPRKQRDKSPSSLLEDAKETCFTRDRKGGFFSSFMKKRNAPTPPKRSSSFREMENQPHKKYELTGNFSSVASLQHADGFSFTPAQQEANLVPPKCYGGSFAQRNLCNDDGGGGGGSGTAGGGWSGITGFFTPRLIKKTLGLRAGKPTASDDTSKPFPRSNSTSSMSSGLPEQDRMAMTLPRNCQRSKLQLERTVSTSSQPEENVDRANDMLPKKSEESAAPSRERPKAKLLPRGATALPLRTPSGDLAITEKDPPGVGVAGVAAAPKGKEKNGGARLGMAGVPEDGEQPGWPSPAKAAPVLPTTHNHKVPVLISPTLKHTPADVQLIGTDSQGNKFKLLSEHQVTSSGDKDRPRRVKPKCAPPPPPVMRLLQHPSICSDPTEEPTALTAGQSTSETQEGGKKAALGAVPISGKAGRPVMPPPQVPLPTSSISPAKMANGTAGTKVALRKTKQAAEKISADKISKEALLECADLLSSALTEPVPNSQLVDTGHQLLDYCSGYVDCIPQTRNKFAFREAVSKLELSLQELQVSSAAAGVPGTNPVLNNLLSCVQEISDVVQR
# Sequence of 26S proteasome regulatory subunit 6B (P43686 whole entry, canonical isoform): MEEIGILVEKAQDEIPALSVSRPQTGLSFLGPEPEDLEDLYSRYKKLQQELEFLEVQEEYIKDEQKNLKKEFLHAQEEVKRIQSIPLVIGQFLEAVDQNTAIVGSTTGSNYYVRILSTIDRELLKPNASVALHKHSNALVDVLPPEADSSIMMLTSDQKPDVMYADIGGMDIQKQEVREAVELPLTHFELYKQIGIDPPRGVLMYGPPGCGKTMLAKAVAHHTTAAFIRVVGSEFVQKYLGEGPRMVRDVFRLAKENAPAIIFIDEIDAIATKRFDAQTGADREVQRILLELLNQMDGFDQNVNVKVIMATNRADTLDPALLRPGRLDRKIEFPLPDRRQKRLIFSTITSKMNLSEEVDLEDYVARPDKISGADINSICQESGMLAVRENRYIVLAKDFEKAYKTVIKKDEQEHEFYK
# Sequence of Mitogen-activated protein kinase kinase kinase 20 (Q9NYL2 whole entry): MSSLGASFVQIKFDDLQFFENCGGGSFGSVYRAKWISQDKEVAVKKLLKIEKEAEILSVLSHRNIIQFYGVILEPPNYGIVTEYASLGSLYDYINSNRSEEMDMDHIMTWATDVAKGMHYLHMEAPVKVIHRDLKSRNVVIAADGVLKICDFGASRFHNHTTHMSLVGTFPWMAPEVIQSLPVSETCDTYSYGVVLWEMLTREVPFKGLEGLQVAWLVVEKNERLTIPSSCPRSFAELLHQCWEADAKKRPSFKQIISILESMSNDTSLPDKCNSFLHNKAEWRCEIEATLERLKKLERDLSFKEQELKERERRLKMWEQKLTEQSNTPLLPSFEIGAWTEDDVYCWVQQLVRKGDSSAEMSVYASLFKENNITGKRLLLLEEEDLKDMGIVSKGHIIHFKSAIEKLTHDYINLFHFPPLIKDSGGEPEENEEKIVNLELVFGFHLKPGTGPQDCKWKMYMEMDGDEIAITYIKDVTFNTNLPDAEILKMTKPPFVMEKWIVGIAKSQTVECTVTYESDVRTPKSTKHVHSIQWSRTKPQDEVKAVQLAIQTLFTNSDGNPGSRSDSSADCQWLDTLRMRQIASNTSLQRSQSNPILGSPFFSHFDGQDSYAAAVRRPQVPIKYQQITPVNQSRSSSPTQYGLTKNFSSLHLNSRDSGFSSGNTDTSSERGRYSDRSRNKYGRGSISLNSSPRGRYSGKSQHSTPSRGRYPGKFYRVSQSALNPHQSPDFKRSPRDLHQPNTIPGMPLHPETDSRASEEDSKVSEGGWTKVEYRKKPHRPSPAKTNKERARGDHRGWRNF
# Sequence of Fibroblast growth factor receptor 1 (P11362 whole entry): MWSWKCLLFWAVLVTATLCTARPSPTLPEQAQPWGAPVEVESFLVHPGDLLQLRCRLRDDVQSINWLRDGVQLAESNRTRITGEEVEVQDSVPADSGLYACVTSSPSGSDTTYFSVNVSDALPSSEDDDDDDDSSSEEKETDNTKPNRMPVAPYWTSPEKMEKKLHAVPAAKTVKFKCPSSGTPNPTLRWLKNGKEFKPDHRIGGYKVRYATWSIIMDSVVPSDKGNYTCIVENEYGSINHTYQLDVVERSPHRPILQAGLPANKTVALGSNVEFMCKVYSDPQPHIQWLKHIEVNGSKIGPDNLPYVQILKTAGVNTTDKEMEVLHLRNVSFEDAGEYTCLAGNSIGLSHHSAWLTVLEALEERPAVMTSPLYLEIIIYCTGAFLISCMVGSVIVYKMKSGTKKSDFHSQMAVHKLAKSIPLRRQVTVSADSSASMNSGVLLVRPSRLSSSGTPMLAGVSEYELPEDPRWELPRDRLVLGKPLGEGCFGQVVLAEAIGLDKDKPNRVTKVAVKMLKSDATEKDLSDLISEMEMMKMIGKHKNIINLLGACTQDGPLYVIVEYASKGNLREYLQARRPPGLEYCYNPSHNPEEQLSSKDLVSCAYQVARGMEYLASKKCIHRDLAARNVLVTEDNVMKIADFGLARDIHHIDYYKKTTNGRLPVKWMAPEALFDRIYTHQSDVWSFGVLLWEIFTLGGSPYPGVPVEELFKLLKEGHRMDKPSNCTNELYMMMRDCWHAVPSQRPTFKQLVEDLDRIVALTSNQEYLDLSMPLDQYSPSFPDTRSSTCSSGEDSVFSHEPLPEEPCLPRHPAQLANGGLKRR
# Sequence of Glycogen synthase kinase-3 beta (P49841 whole entry): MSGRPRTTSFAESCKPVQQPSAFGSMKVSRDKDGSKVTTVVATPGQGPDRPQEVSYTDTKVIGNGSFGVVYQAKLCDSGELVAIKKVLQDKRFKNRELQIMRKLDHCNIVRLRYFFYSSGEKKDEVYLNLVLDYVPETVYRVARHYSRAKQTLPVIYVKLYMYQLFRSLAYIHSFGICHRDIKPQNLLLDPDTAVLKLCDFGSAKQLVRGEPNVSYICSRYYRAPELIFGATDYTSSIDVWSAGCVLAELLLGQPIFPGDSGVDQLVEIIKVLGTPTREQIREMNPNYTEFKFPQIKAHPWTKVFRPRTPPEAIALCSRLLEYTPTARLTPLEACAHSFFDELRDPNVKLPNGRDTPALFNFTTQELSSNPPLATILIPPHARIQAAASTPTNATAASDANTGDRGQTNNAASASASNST
# Sequence of MAP/microtubule affinity-regulating kinase 3 (P27448 whole entry): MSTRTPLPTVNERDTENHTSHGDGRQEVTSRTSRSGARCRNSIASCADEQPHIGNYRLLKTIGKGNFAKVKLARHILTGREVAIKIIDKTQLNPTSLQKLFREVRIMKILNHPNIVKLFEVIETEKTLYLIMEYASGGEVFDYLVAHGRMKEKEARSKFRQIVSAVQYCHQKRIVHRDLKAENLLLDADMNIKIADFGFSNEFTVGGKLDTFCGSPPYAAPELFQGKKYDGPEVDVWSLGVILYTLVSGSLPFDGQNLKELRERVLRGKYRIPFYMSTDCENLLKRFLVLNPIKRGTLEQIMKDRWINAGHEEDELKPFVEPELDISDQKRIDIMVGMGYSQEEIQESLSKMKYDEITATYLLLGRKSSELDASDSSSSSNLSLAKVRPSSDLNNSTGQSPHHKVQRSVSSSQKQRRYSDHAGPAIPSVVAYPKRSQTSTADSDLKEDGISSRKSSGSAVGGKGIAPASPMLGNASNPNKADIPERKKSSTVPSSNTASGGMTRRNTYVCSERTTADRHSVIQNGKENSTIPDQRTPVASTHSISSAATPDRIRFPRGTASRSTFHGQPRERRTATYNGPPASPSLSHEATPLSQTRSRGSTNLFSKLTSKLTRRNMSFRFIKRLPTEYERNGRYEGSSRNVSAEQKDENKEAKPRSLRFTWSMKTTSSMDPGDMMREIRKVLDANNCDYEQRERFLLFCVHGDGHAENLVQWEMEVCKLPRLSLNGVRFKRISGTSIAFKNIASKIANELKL
SMILES,Kd [1],Kd [2],Kd [3],Kd [4],Kd (Actin-related protein 2),Kd [5],Kd [6],Kd [7],Kd [8],Kd [9],Kd [10],Kd [11],Kd [12],Kd [13]
CCc1cnn2c(NCc3ccc[n+]([O-])c3)cc(N3CCCC[C@H]3CCO)nc12 [DINACICLIB],> 30 µM (inactive),> 30 µM (inactive),2.23 µM (active),> 30 µM (inactive),> 30 µM (inactive),> 30 µM (inactive),1.43 µM (active),> 30 µM (inactive),> 30 µM (inactive),> 30 µM (inactive),> 30 µM (inactive),> 30 µM (inactive),–,–
OCCn1cc(-c2cnc3nnn(Cc4ccc5ncccc5c4)c3n2)cn1 [PF-04217903],> 30 µM (inactive),> 30 µM (inactive),> 30 µM (inactive),> 30 µM (inactive),> 30 µM (inactive),> 30 µM (inactive),–,> 30 µM (inactive),> 30 µM (inactive),> 30 µM (inactive),> 30 µM (inactive),> 30 µM (inactive),–,–
CN1CCN(c2ccc3nc(-c4c(N)c5c(F)cccc5[nH]c4=O)[nH]c3c2)CC1 [DOVITINIB],> 30 µM (inactive),–,–,–,> 30 µM (inactive),–,–,–,> 30 µM (inactive),> 30 µM (inactive),–,–,–,–
Cc1cc(Nc2cc(N3CCN(C)CC3)nc(/C=C/c3ccccc3)n2)n[nH]1 [ENMD-2076],> 30 µM (inactive),> 30 µM (inactive),–,> 30 µM (inactive),> 30 µM (inactive),> 30 µM (inactive),–,–,> 30 µM (inactive),> 30 µM (inactive),–,–,–,–
Cn1cc(-c2ccc(F)c(C(F)(F)F)c2)nc1C1CCN(c2ncnc3[nH]ncc23)CC1 [LY-2584702],> 30 µM (inactive),–,> 30 µM (inactive),> 30 µM (inactive),> 30 µM (inactive),> 30 µM (inactive),–,> 30 µM (inactive),> 30 µM (inactive),> 30 µM (inactive),> 30 µM (inactive),> 30 µM (inactive),> 30 µM (inactive),> 30 µM (inactive)
COc1cc(CCc2cc(NC(=O)c3ccc(N4C[C@@H](C)N[C@@H](C)C4)cc3)n[nH]2)cc(OC)c1 [AZD-4547],> 30 µM (inactive),–,> 30 µM (inactive),> 30 µM (inactive),> 30 µM (inactive),> 30 µM (inactive),> 30 µM (inactive),> 30 µM (inactive),> 30 µM (inactive),> 30 µM (inactive),9.02 µM (active),9.54 µM (active),–,> 30 µM (inactive)
CNC(=O)c1cc(Oc2ccc(NC(=O)Nc3ccc(Cl)c(C(F)(F)F)c3)c(F)c2)ccn1 [REGORAFENIB],> 30 µM (inactive),> 30 µM (inactive),> 30 µM (inactive),> 30 µM (inactive),> 30 µM (inactive),> 30 µM (inactive),> 30 µM (inactive),> 30 µM (inactive),0.368 µM (active),> 30 µM (inactive),> 30 µM (inactive),0.274 µM (active),–,> 30 µM (inactive)
CCn1c(-c2nonc2N)nc2c(C#CC(C)(C)O)ncc(OC[C@H]3CCCNC3)c21 [GSK-690693],> 30 µM (inactive),> 30 µM (inactive),–,–,> 30 µM (inactive),–,–,–,> 30 µM (inactive),> 30 µM (inactive),–,–,–,–
O=C(Nc1cccc(Cl)c1)Nc1ncc(CCNc2ncnc3ccsc23)s1 [SNS-314],> 30 µM (inactive),> 30 µM (inactive),> 30 µM (inactive),> 30 µM (inactive),> 30 µM (inactive),–,–,> 30 µM (inactive),> 30 µM (inactive),> 30 µM (inactive),–,–,–,–
COc1cc2nccc(Oc3ccc(NC(=O)Nc4cc(C)on4)c(Cl)c3)c2cc1OC [TIVOZANIB],> 30 µM (inactive),> 30 µM (inactive),> 30 µM (inactive),> 30 µM (inactive),> 30 µM (inactive),> 30 µM (inactive),> 30 µM (inactive),0.302 µM (active),1.35 µM (active),> 30 µM (inactive),> 30 µM (inactive),–,–,> 30 µM (inactive)
CNC(=O)c1ccc(-c2cnc3ncc(Cc4ccc5ncccc5c4)n3n2)cc1F [CAPMATINIB],> 30 µM (inactive),> 30 µM (inactive),> 30 µM (inactive),> 30 µM (inactive),–,> 30 µM (inactive),–,> 30 µM (inactive),> 30 µM (inactive),> 30 µM (inactive),> 30 µM (inactive),> 30 µM (inactive),> 30 µM (inactive),> 30 µM (inactive)
Cc1cn(-c2cc(NC(=O)c3ccc(C)c(Nc4nccc(-c5cccnc5)n4)c3)cc(C(F)(F)F)c2)cn1 [NILOTINIB],> 30 µM (inactive),> 30 µM (inactive),–,–,> 30 µM (inactive),–,–,–,1.27 µM (active),> 30 µM (inactive),–,–,–,–
Nc1nc(N)c2nc(-c3cccc(O)c3)c(-c3cccc(O)c3)nc2n1 [TG100-115],> 30 µM (inactive),> 30 µM (inactive),–,–,–,–,–,–,3.67 µM,> 30 µM (inactive),–,–,–,–
Cc1nc(N)sc1-c1ccnc(Nc2ccc(N3CCOCC3)cc2)n1 [CYC-116],> 30 µM (inactive),> 30 µM (inactive),–,> 30 µM (inactive),> 30 µM (inactive),–,–,> 30 µM (inactive),4.82 µM (active),> 30 µM (inactive),–,–,–,> 30 µM (inactive)
O=c1sn(-c2cccc3ccccc23)c(=O)n1Cc1ccccc1 [TIDEGLUSIB],> 30 µM (inactive),> 30 µM (inactive),> 30 µM (inactive),> 30 µM (inactive),> 30 µM (inactive),> 30 µM (inactive),–,> 30 µM (inactive),> 30 µM (inactive),> 30 µM (inactive),> 30 µM (inactive),> 30 µM (inactive),> 30 µM (inactive),> 30 µM (inactive)
